≈ marks a conversion by molar mass, not a printed value. Like-named read-outs stand apart in the source and are kept apart here.
How the values were obtained:
Ovarian (MRI-H-207) line = format: in vivo, human
Source text: The xenograft experiments have been carried by Dr. H. H. Fiebig of the University of Freiburg [Lung-NSCLC (LXGF) line, Renal line, Breast line; See: H. H. Fiebig et al., Behring Inst. Mitt., 74 343] and by Dr. E. Boven of the Free University Hospital Amsterdam [Ovarian (MRI-H-207) line; See: E. Boven et al., Cancer Res., 45, 86 (1985) and E. Boven et al., Eur. J. Clin. Oncol., 21, 1253 (1985)].
Mice: C57B1 athymic (nu/nu) female mice, 8 to 10 weeks of age were used for s.c. bilateral implantation of tumour fragments 2 mm diameter.
Treatment: E.O. 9 was dissolved in saline at a concentration of 0.5 mg/ml prior to administration. Drug doses and schedules were derived from studies in experimental murine tumour systems and from orientation studies in non-tumour-bearing nude mice. Treatment was started i.v. when tumours measured 50-150 mm^3. After randomization a group of 6-7 tumour-bearing mice was treated and a group of 5-6 tumour-bearing mice served as control.
Evaluation of efficacy: Tumours were measured twice weekly in three dimensions. Efficacy was expressed as the mean of relative tumour volume in treated animals vs. that in control animals×100 (% T/C). The optimal value was calculated within 35 days after the last injection. Toxic death (dead mice within two weeks after the last injection) were excluded from the evaluation.
MRI-H-207: An undifferentiated adenocarcinoma kindly provided by Dr. A. E. Bogden, Worcester, Mass, with a doubling time of 3-5 days.

WiDr cells; colon tumour = experiment: In vitro panel of human tumour lines (TNO): WiDr; format: cell-based; details: about 72 hours; also: key: -: no inhibition of cell growth; +: total cell-kill
Protocol: (§1) Compounds E.O. 1, E.O. 2, E.O. 4, E.O. 4A, E.O. 8, E.O. 9, […], E.O. 33, and E.O. 35 were tested for their activity against five human tumour cell lines at the Radiobiological Institute TNO Rijswijk.
(§2) The new in vitro prescreen uses human tumour clones; it was set up by Dr. P. Lelieveld at TNO Rijswijk and comprises testing compounds in a bioliquid assay for their cytostatic activity against the following five human tumour lines:
(§3) After a continuous exposure to the drugs to be tested and to Adriamycin in `24 well tissue culture clusters, type 3524 (Costar)`, the remaining cells are fixed and stained. Using increasing drug concentrations the inhibiting concentration can be estimated qualitatively.
(§4) Cells: the human tumour cells are maintained in Dulbecco's medium supplemented with 10 percent foetal calf serum.
(§5) M and W cell suspensions: 10^5 cells/ml.
(§6) The cells were grafted into 16 mm wells for 48 hours (0.5 ml cell suspension per well was used).
(§7) Drugs: the compound to be tested was dissolved in appropriate concentrations in a mixture of Hepes-buffered Hanks' balanced salt solution and ethanol. The drug solutions (0.05 ml) were added to the different wells. The final ethanol concentration in each well was less than one percent.
(§8) The cells were continuously incubated with the compound under test at 37° in an atmosphere of 10 percent CO2 in humidified air for about 72 hours.
(§9) Determination of the inhibiting dose: the cells were fixed and stained with a solution of crystal violet in methanol/formaldehyde.

[1] = tested on: R-1 cells (Rhabdomyosarcoma Cells); experiment: R-1 activity (bioliquid assay), cytotoxicity; format: cell-based; details: Rhabdomyosarcoma cell
Source text: The indoloquinones II (formula II) have been tested in respect of their cytotoxic activity against L1210 cells and R-1 cells (Rhabdomyosarcoma Cells) in a bioliquid assay at the department of oncology of the Free University of Amsterdam (Table I). […] (Table II). Eight indoloquinones (E.O. 1, E.O. 2, E.O. 4, E.O. 4A, E.O. 8, E.O. 9, E.O. 33 and E.O. 35) have been tested in a panel of five human tumour lines (TNO Rijswijk; Table III).
For the determination of the R-1 activity, Rhabdomyosarcoma cells were brought into Falcon multiwells (growth area: 9.6 cm^2) (~10^6 cells per dish) containing 3 ml of Dulbecco's medium supplemented with 10% Foeto Calf Serum (FCS). […] Thereupon the drug solution was removed and the cells were covered with fresh medium. After 48 hours the cells were trypsinized and counted on a Sysmex microcell counter (CC110).
(§10) The in vitro L1210 and R-1 activities of the indoloquinones (formula III), were also determined in the bioliquid assays as described above.

[2] = tested on: T 24 cells; bladder carcinoma; experiment: In vitro panel of human tumour lines (TNO): T 24; format: cell-based; details: about 72 hours; also: key: -: no inhibition of cell growth; +: total cell-kill
Protocol: as §1, §2, §3, §4
(§11) A, T and Z cell suspensions: 5·10^4 cells/ml
as §6, §7, §8, §9

MCF7 breast cancer cells = experiment: In vitro panel of human tumour lines (TNO): MCF-7; format: cell-based; details: about 72 hours; also: key: -: no inhibition of cell growth; +: total cell-kill
Protocol: as §1, §2, §3, §4, §5, §6, §7, §8, §9

[3] = tested on: A 204 cells; rhabdomyosarcoma; experiment: In vitro panel of human tumour lines (TNO): A 204; format: cell-based; details: about 72 hours; also: key: -: no inhibition of cell growth; +: total cell-kill
Protocol: as §1, §2, §3, §4, §11, §6, §7, §8, §9

IgR37 cells melanoma = experiment: In vitro panel of human tumour lines (TNO): IgR-37; format: cell-based; details: about 72 hours; also: key: -: no inhibition of cell growth; +: total cell-kill
Protocol: as §1, §2, §3, §4, §11, §6, §7, §8, §9

L1210 cells = experiment: L1210 activity (bioliquid assay), cytotoxicity; format: cell-based; details: Mus musculus, L1210, 48 h
Source text: The indoloquinones II (formula II) have been tested in respect of their cytotoxic activity against L1210 cells and R-1 cells (Rhabdomyosarcoma Cells) in a bioliquid assay at the department of oncology of the Free University of Amsterdam (Table I). In addition to this seven compounds (E.O. 1, E.O. 2, E.O. 4, E.O. 7, E.O. 9, E.O. 16 and E.O. 17) have been tested on L1210 activity in a clonogenic assay at TNO, Rijswijk. Further, the lowest active doses of the compounds E.O. 1, E.O. 2, E.O. 4 and E.O. 9 have been determined at TNO Rijswijk, according to the method described by Lamberts et al. [Oncology, 40, 301 (1983)]. (Table II). Eight indoloquinones (E.O. 1, E.O. 2, E.O. 4, E.O. 4A, E.O. 8, E.O. 9, E.O. 33 and E.O. 35) have been tested in a panel of five human tumour lines (TNO Rijswijk; Table III). From the latter group three indoloquinones (E.O. 1, E.O. 4 and E.O. 9) have been selected for a cytotoxicity study, involving five slowly growing human tumour lines (University of Freiburg; Table IV).
For this purpose, L1210 cells were grown, as suspension, in Falcon multi-wells (growth area: 9.6 cm^2) using RPMI supplemented with 15% FCS and 2-mercapto-ethanol (60 μmol) as medium. In this medium, the cells were continuously incubated with the compound to be tested at 37° C. in an atmosphere of 5% CO2 in humidified air for 48 hours. Thereupon they were counted on a Sysmex microcell counter (CC110).
as §10

P 388 tumour cells = experiment: In vivo P388 experiments (Brussels); parameters: species or system mice; details: for MAX T/C: days 1 to 5
Protocol: These experiments were carried out at the Institute Jules Bordet, Brussels, on CDF, female mice. The mice were inoculated intraperitoneally (IP) with 1×10^6 P 388 tumour cells. After 24 hours, the compounds were administrated as suspensions in "Tween-80" or using saline as vehicle. Six mice were used at each dose of the compound, given on days 1 to 5 and eighteen control mice were injected with saline.

[4] = Half-wave reduction potentials / polarography (University of Utrecht); format: physicochemical
Source text: *The halve wave reduction potentials (E1/2) have been determined at the
Pharmaceutical Laboratory of University of Utrecht. Only the first
(quinone) reduction potential has been given.
Additional evidence for the occurrence of a bioreductive activation mechanism during the cytotoxic action of indoloquinones (II) was obtained via electrochemical studies, which have been carried out at the Pharmaceutical Laboratory of the University of Utrecht. […]

[5] = 60 mg/kg, days of treatment 0,6,13,20
[6] = read-out: ID-50 R-1, Table I, bioliquid assay
[7] = read-out: ID-50 R-1, Table VIII
[8] = read-out: ID-50 L1210, Table VIII
[9] = 150 mg/kg, days of treatment 0,9,16

Row | Structure (SMILES) | in vitro activity score, WiDr (WiDr cells; colon tumour; 0.01 μg/ml) | in vitro activity score, WiDr (WiDr cells; colon tumour; 0.1 μg/ml) | in vitro activity score, WiDr (WiDr cells; colon tumour; 1.0 μg/ml) | IC50 [1, 7] [µg/mL] | in vitro activity score, T 24 ([2]; 0.01 μg/ml) | in vitro activity score, T 24 ([2]; 0.1 μg/ml) | in vitro activity score, T 24 ([2]; 1.0 μg/ml) | in vitro activity score, MCF-7 (MCF7 breast cancer cells; 0.01 μg/ml) | in vitro activity score, MCF-7 (MCF7 breast cancer cells; 0.1 μg/ml) | in vitro activity score, MCF-7 (MCF7 breast cancer cells; 10 μg/ml) | in vitro activity score, A 204 ([3]; 0.01 μg/ml) | in vitro activity score, A 204 ([3]; 0.1 μg/ml) | in vitro activity score, A 204 ([3]; 1.0 μg/ml) | in vitro activity score, IgR-37 (IgR37 cells melanoma; 0.01 μg/ml) | in vitro activity score, IgR-37 (IgR37 cells melanoma; 10 μg/ml) | IC50 (L1210 cells; [8]) [µg/mL] | in vitro activity score, MCF-7 (MCF7 breast cancer cells; 1.0 μg/ml) | further results
1 | O=c1[nH]cc(F)c(=O)[nH]1 [5FU] |  |  |  |  |  |  |  |  |  |  |  |  |  |  |  |  |  | T/C % (Ovarian (MRI-H-207) line; [5]): 63%; toxic deaths (Ovarian (MRI-H-207) line; [5]): 0/7
2 | O=P1(N(CCCl)CCCl)NCCCO1 (stereo not drawn) [CTX] |  |  |  |  |  |  |  |  |  |  |  |  |  |  |  |  |  | toxic deaths (Ovarian (MRI-H-207) line): 2/7
3 | N.N.O=C([O-])C1(C(=O)[O-])CCC1.[Pt+2] [Carboplatin] |  |  |  |  |  |  |  |  |  |  |  |  |  |  |  |  |  | toxic deaths (Ovarian (MRI-H-207) line; 60 mg/kg, days of treatment 0.6): 0/6
4 | COc1cccc2c1C(=O)c1c(O)c3c(c(O)c1C2=O)C[C@@](O)(C(=O)CO)C[C@@H]3O[C@H]1C[C@H](N)[C@H](O)[C@H](C)O1 [DXR] |  |  |  |  |  |  |  |  |  |  |  |  |  |  |  |  |  | toxic deaths (Ovarian (MRI-H-207) line; 10 mg/kg, days of treatment 0.7): 1/6
5 | CC(=O)OCc1c2c(n(C)c1/C=C/CO)C(=O)C=C(N1CC1)C2=O [E.O. 4A, 3-Acetoxymethyl-5-aziridino-1-methyl-2-[1H-indole-4,7-dione]prop-β-en-α-ol] | - | - | + | 0.022 (≈ 0.0666 µM) | - | - | + | - | - | + | - | - | + | - | + | 0.15 (≈ 0.454 µM) |  | in vitro activity score, WiDr (WiDr cells; colon tumour; 10 μg/ml): +; IC50 [1, 6]: 0.02 µg/mL (≈ 0.0605 µM); in vitro activity score, T 24 ([2]; 10 μg/ml): +; in vitro activity score, A 204 ([3]; 10 μg/ml): +; in vitro activity score, IgR-37 (IgR37 cells melanoma; 1.0 μg/ml): +; MAX T/C (P 388 tumour cells; 100 mg/kg): 120%
6 | CC1CN1C1=CC(=O)c2c(c(CO)c(/C=C/CO)n2C)C1=O (stereo not drawn) [E.O. 8, 3-Hydroxymethyl-1-methyl-5-propyleneamino-2-[1H-indole-4,7-dione]prop-β-en-α-ol] | - | - | - | 7.6 (≈ 25.1 µM) | - | - | - | - | - | - | - | - | - | - | + | 0.48 (≈ 1.59 µM) | - | half-wave potential E1.2, wave I ([4]; pH = 8 vs Ag/AgCl): -380 mV; half-wave potential E1.2, wave II ([4]; pH = 8 vs Ag/AgCl): -780 mV; in vitro activity score, IgR-37 (IgR37 cells melanoma; 0.1 μg/ml): -; in vitro activity score, IgR-37 (IgR37 cells melanoma; 1.0 μg/ml): -; IC50 (L1210 cells; read-out: ID-50 L1210, Table I, bioliquid assay, 48 hours): 0.5 µg/mL (≈ 1.65 µM)
7 | CC(=O)OC/C=C/c1c(COC(C)=O)c2c(n1C)C(=O)C(C)=C(N1CC1)C2=O [E.O. 35, 3-Acetoxymethyl-5-aziridino-1,6-dimethyl-2-[1H-indole-4,7-dione]prop-β-en-αyl acetate] | - | - | - | 0.32 | - | - | - | - | - |  | - | - | - | - | + | 0.55 | - | IC50 [1, 6]: 0.3 µg/mL; in vitro activity score, IgR-37 (IgR37 cells melanoma; 0.1 μg/ml): -; MAX T/C (P 388 tumour cells; 400 mg/kg): 131%; T/C at the optimal dose (P 388 tumour cells; optimal dose): ~130%
8 | COC(=O)/C=C/c1c(C(=O)OC)c2c(n1C)C(=O)C=C(N1CCOCC1)C2=O [E.O. 55, Methyl 3-methoxycarbonyl-1-methyl-5-morpholino-2-[1H-indole-4,7-dione]acrylate] |  |  |  |  |  |  |  |  |  |  |  |  |  |  |  |  |  | IC50 ([1]; Table IA, para-indoloquinone diesters, read-out: ID-50 R-1): 8.9 µg/mL (≈ 22.9 µM); E1/2, halve wave reduction potential ([4]; Table IA, only the first (quinone) reduction potential): -240 mV; IC50 (L1210 cells; Table IA, para-indoloquinone diesters, read-out: ID-50 L1210): 1.4 µg/mL (≈ 3.6 µM)
9 | CN(C)c1nc(N(C)C)nc(N(C)C)n1 [HMM] |  |  |  |  |  |  |  |  |  |  |  |  |  |  |  |  |  | toxic deaths (Ovarian (MRI-H-207) line; 150 mg/kg, days of treatment 0,2,4,6): 1/6
10 | CN(Cc1cnc2nc(N)nc(N)c2n1)c1ccc(C(=O)N[C@@H](CCC(=O)O)C(=O)O)cc1 [Methotrex., reference compound] | - |  |  |  |  |  |  | - | - | - |  | + | + | - |  |  | - | T/C % (Ovarian (MRI-H-207) line; [9]): 47%; toxic deaths (Ovarian (MRI-H-207) line; [9]): 2/7; in vitro activity score, A 204 ([3]; 10 μg/ml): +
